Measured values as given in PMC8330742, “New benzothieno[2,3-c]pyridines as non-steroidal CYP17 inhibitors: design, synthesis, anticancer screening, apoptosis induction, and in silico ADME profile studies” (Journal of Enzyme Inhibition and Medicinal Chemistry, 2021).
One block for each compound: values may come before it.

Key:
CYP17 = conditions: Figure 1, known CYP17 inhibitors; cited from earlier work
SK-MEL-28 = assay: NCI-60 SRB screen; type: cell-based; conditions: SK-MEL-28; single dose 10^−5 M
HOP-62 = assay: NCI-60 SRB screen; type: cell-based, human; conditions: HOP-62; single dose 10^−5 M
A549/ATCC = assay: NCI-60 SRB screen; type: cell-based, human; conditions: single dose 10^−5 M
NCI-H522 = assay: NCI-60 SRB screen; type: cell-based, human; conditions: NCI-H522; single dose 10^−5 M
CAKI-1 = assay: NCI-60 SRB screen; type: cell-based, human; conditions: CAKI-1; single dose 10^−5 M
SF-539 = assay: NCI-60 SRB screen; type: cell-based, human; conditions: SF-539; single dose 10^−5 M
SK-MEL-2 = assay: NCI-60 SRB screen; type: cell-based, human; conditions: SK-MEL-2; single dose 10^−5 M
M14 = assay: NCI-60 SRB screen; type: cell-based, human; conditions: M14; single dose 10^−5 M
HOP-92 = assay: NCI-60 SRB screen; type: cell-based, human; conditions: HOP-92; single dose 10^−5 M
KM12 = assay: NCI-60 SRB screen; type: cell-based, human; conditions: KM12; single dose 10^−5 M
SF-295 = assay: NCI-60 SRB screen; type: cell-based, human; conditions: SF-295; single dose 10^−5 M
SW-620 = assay: NCI-60 SRB screen; type: cell-based; conditions: SW-620; single dose 10^−5 M
OVCAR-8 = assay: NCI-60 SRB screen; type: cell-based, human; conditions: OVCAR-8; single dose 10^−5 M
RXF 393 = assay: NCI-60 SRB screen; type: cell-based, human; conditions: RXF 393; single dose 10^−5 M
NCI-H23 = assay: NCI-60 SRB screen; type: cell-based, human; conditions: NCI-H23; single dose 10^−5 M
RPMI-8226 = assay: NCI-60 SRB screen; type: cell-based; conditions: RPMI-8226; single dose 10^−5 M
SNB-19 = assay: NCI-60 SRB screen; type: cell-based; conditions: SNB-19; single dose 10^−5 M
SN12C = assay: NCI-60 SRB screen; type: cell-based, human; conditions: SN 12 C; single dose 10^−5 M
HT-29 = assay: NCI-60 SRB screen; type: cell-based; conditions: HT-29; single dose 10^−5 M
ACHN = assay: NCI-60 SRB screen; type: cell-based; conditions: single dose 10^−5 M
EKVX = assay: NCI-60 SRB screen; type: cell-based, human; conditions: single dose 10^−5 M
UO-31 = assay: NCI-60 SRB screen; type: cell-based, human; conditions: UO-31; single dose 10^−5 M
HCC-2998 = assay: NCI-60 SRB screen; type: cell-based, human; conditions: HCC-2998; single dose 10^−5 M
HCT-15 = assay: NCI-60 SRB screen; type: cell-based, human; conditions: HCT-15; single dose 10^−5 M
MALME-3M = assay: NCI-60 SRB screen; type: cell-based, human; conditions: single dose 10^−5 M
UACC-62 = assay: NCI-60 SRB screen; type: cell-based, human; conditions: UACC-62; single dose 10^−5 M
OVCAR-4 = assay: NCI-60 SRB screen; type: cell-based, human; conditions: OVCAR-4; single dose 10^−5 M
HL-60(TB) = assay: NCI-60 SRB screen; type: cell-based, human; conditions: HL-60 (TB); single dose 10^−5 M
SF-268 = assay: NCI-60 SRB screen; type: cell-based, human; conditions: SF-268; single dose 10^−5 M
LOX IMVI = assay: NCI-60 SRB screen; type: cell-based, human; conditions: single dose 10^−5 M
HCT-116 = assay: NCI-60 SRB screen; type: cell-based, human; conditions: HCT-116; single dose 10^−5 M
SK-MEL-5 = assay: NCI-60 SRB screen; type: cell-based, human; conditions: SK-MEL-5; single dose 10^−5 M
COLO 205 = assay: NCI-60 SRB screen; type: cell-based, human; conditions: COLO 205; single dose 10^−5 M
U251 = assay: NCI-60 SRB screen; type: cell-based, human; conditions: U251; single dose 10^−5 M
OVCAR-5 = assay: NCI-60 SRB screen; type: cell-based, human; conditions: OVCAR-5; single dose 10^−5 M
NCI/ADR-RES = assay: NCI-60 SRB screen; type: cell-based, human; conditions: single dose 10^−5 M
NCI-H460 = assay: NCI-60 SRB screen; type: cell-based, human; conditions: NCI-H460; single dose 10^−5 M
SNB-75 = assay: NCI-60 SRB screen; type: cell-based, human; conditions: SNB-75; single dose 10^−5 M
SR = assay: NCI-60 SRB screen; type: cell-based; conditions: single dose 10^−5 M
MDA-MB-435 = assay: NCI-60 SRB screen; type: cell-based; conditions: MDA-MB435; single dose 10^−5 M
A498 = assay: NCI-60 SRB screen; type: cell-based, human; conditions: A498; single dose 10^−5 M
IGROV1 = assay: NCI-60 SRB screen; type: cell-based, human; conditions: IGROV1; single dose 10^−5 M
UACC-257 = assay: NCI-60 SRB screen; type: cell-based, human; conditions: UACC-275 (so in the source); single dose 10^−5 M
TK-10 = assay: NCI-60 SRB screen; type: cell-based, human; conditions: TK-10; single dose 10^−5 M
[1] = tested on: panel of 60 cancer cell lines; assay: NCI-60 SRB screen, mean or range over the panel; type: cell-based, human; conditions: mean over the cell lines; single dose 10^−5 M
786-0 = assay: NCI-60 SRB screen; type: cell-based; conditions: 786-0; single dose 10^−5 M
NCI-H322M = assay: NCI-60 SRB screen; type: cell-based, human; conditions: single dose 10^−5 M
MOLT-4 = assay: NCI-60 SRB screen; type: cell-based; conditions: MOLT-4; single dose 10^−5 M
CCRF-CEM = assay: NCI-60 SRB screen; type: cell-based; conditions: single dose 10^−5 M
K-562 = assay: NCI-60 SRB screen; type: cell-based, human; conditions: K-562; single dose 10^−5 M
OVCAR-3 = assay: NCI-60 SRB screen; type: cell-based, human; conditions: OVCAR-3; single dose 10^−5 M
NCI-H226 = assay: NCI-60 SRB screen; type: cell-based, human; conditions: NCI-H226; single dose 10^−5 M
SK-OV-3 = assay: NCI-60 SRB screen; type: cell-based, human; conditions: SK-OV-3; single dose 10^−5 M

SMILES: CNC(=O)c1ccc(N2C(=S)N(c3cnc(C#N)c(C(F)(F)F)c3)C(=O)C23CCC3)cc1F [Apalutamide, apalutamide]
- IC50 (CYP17): 15 nM

SMILES: Cc1ccncc1N1CCN(c2ccnc(Cl)c2)C1=O [CFG920]
- IC50 (CYP17): 23 nM

- melting point: 200 to 202 °C
SMILES: O=C1C(=Cc2cccc([N+](=O)[O-])c2)Sc2c(F)cccc21 [Compound 2d, 7-Fluoro-2-(3-nitrobenzylidene)[1]benzothiophen-3(2H)-one]

SMILES: O=C1Cc2c(sc3c(F)cccc23)C(c2cccc([N+](=O)[O-])c2)N1 (stereo not drawn) [Compound 3d]
- Growth inhibition (%) (SK-MEL-28): −9.19%
- Growth inhibition (%) (HOP-62): 14.32%
- Growth inhibition (%) (A549/ATCC): −5.27%
- Growth inhibition (%) (NCI-H522): 17.55%
- Growth inhibition (%) (CAKI-1): 21.82%
- Growth inhibition (%) (SF-539): 6.60%
- Growth inhibition (%) (SK-MEL-2): −1.12%
- Growth inhibition (%) (M14): 1.35%
- Growth inhibition (%) (HOP-92): 10.96%
- Growth inhibition (%) (KM12): 3.93%
- Growth inhibition (%) (SF-295): 2.30%
- Growth inhibition (%) (SW-620): 2.40%
- Growth inhibition (%) (OVCAR-8): 2.86%
- Growth inhibition (%) (RXF 393): −5.23%
- Growth inhibition (%) (NCI-H23): 1.04%
- Growth inhibition (%) (RPMI-8226): 29.04%
- Growth inhibition (%) (SNB-19): 6.23%
- Growth inhibition (%) (SN12C): 4.04%
- Growth inhibition (%) (HT-29): 0.03%
- Growth inhibition (%) (ACHN): 6.70%
- Growth inhibition (%) (EKVX): 7.98%
- Growth inhibition (%) (UO-31): 34.84%
- Growth inhibition (%) (HCC-2998): −6.11%
- Growth inhibition (%) (HCT-15): 21.33%
- Growth inhibition (%) (MALME-3M): −6.36%
- Growth inhibition (%) (UACC-62): 14.07%
- Growth inhibition (%) (OVCAR-4): −1.20%
- Growth inhibition (%) (HL-60(TB)): 12.00%
- Growth inhibition (%) (SF-268): 14.60%
- Growth inhibition (%) (LOX IMVI): 12.77%
- Growth inhibition (%) (HCT-116): 23.07%
- Growth inhibition (%) (SK-MEL-5): 5.55%
- Growth inhibition (%) (COLO 205): −7.27%
- Growth inhibition (%) (U251): 20.57%
- Growth inhibition (%) (OVCAR-5): −8.70%
- Growth inhibition (%) (NCI/ADR-RES): 4.50%
- Growth inhibition (%) (NCI-H460): 0.53%
- Growth inhibition (%) (SNB-75): 21.53%
- Growth inhibition (%) (SR): 23.81%
- Growth inhibition (%) (MDA-MB-435): −3.38%
- Growth inhibition (%) (A498): 4.88%
- Growth inhibition (%) (IGROV1): 20.45%
- Growth inhibition (%) (UACC-257): −7.53%
- Growth inhibition (%) (TK-10): −52.28%
- Mean growth inhibition (%) [1]: 6.24%
- Growth inhibition (%) (786-0): −10.00%
- Growth inhibition (%) (NCI-H322M): 2.78%
- Growth inhibition (%) (MOLT-4): 2.90%
- Growth inhibition (%) (CCRF-CEM): 0.90%
- Growth inhibition (%) (K-562): 15.78%
- Growth inhibition (%) (OVCAR-3): 0.09%
- Growth inhibition (%) (NCI-H226): 21.32%
- Growth inhibition (%) (SK-OV-3): −3.95%

SMILES: C[C@]12CC[C@H](O)CC1=CC[C@@H]1[C@@H]2CC[C@]2(C)C(n3cnc4ccccc43)=CC[C@@H]12 [Galeterone]
- IC50 (CYP17): 300 nM

SMILES: Oc1ccc2sc3c(c2c1)CCN(Cc1cccnc1)C3 [VIc]
- IC50 (CYP17): 20.9 nM

SMILES: N#Cc1ccc2sc3c(c2c1)CCN(Cc1cccnc1)C3 [VId]
- IC50 (CYP17): 257 nM

SMILES: c1ccc2c(c1)[nH]c1cc(Cc3cnc[nH]3)ccc12 [YM-116]
- IC50 (CYP17): 228 nM
